Test results taken from US9701675B2, “Activation of TRPV4 ion channel by physical stimuli and critical role for TRPV4 in organ-specific inflammation and itch” (Duke University, priority 2012, dated 2017).
Entries after “also recorded” stand apart in the source; their conditions may differ. Where a SMILES comes first, the peptide text is derived from it. [ ]: non-standard residue; d: D form.

How the values were obtained:
TRPV4 [1] = target: T1, TRPV4 (Mus musculus, UniProt Q9EPK8); experiment: 4α-PDD-evoked Ca++ signaling in 1° MK (fura-2 ratiometric imaging); type: cell-based
T1 construct: endogenous in cells; host or cells: primary mouse keratinocytes (WT 1° MK)
Description: (§1) Ca++ imaging of mouse 1° MK in response to chemical activation of TRPV4 was conducted after loading with 2 μM fura2-AM, following a ratiometric Ca2+ imaging protocol with 340/380 nm […] for dual excitation. Ratios of emissions were acquired at 0.5 Hz. ΔR/R0 was determined as the fraction of the increase of a given ratio over baseline ratio, divided by baseline ratio. For stimulation of cells with UVB, where fura-2 was not suitable because of the proximity of stimulation with 340/380 nm and 295 nm, 2 μM fluo4-AM was used instead. Ca++ imaging was carried out at 488 nm excitation, acquisition of emissions at 0.5 Hz, expressed as ΔF/F0. In the custom-built UV optical system, UV LEDs were capped with a ball lens, a transparent optical window in the shape of a hemispherical lens (FIG. 2B). The LED output optical beam focused at 15-20 mm from the lens, with a spot diameter of approximately 1.5-2.0 mm (FIG. 2C). […] The thermal equilibration stage was set for physiological temperature. We confirmed the non-thermal nature of UVB stimulation using the customized 295 nm LED device in a dedicated experiment (FIG. 2D), thus confirming the specific modality of stimulation as UVB.

[2] = system: primary mouse epidermal keratinocytes (1° MK); experiment: UVB-evoked Ca++ signaling in primary mouse keratinocytes (fluo-4 imaging); type: cell-based; settings: for effect on ET1-augmented, UVB-induced Ca++ transients in 1° MK: UVB and ET1 co-exposure; for effect on UVB-evoked Ca++ signal in 1° MK: concentration not given (IPP: same dose as against camphor)
Description: Ca++ imaging of 1° MK was conducted following routine procedures. For UVB stimulation, a customized device was built. The system comprised a printed circuit board for electrical interconnects and mechanical support and an ultraviolet light-emitting diode (UV LED).
The operating wavelength was 295 nm (FIG. 2A), with a full-width half-max of 12 nm. The optical power was 500 mW. The focal point was aimed at the plane of the upper surface of the quartz coverslip, which was used to minimize UV absorption along the optical path towards the cells (FIG. 2A-C). The optical intensity at the focal point was estimated to be 150 mW/mm^2.
as §1, with “temperature.” for “temperature. We confirmed the non-thermal nature of UVB stimulation using the customized 295 nm LED device in a dedicated experiment (FIG. 2D), thus confirming the specific modality of stimulation as UVB.”

ET1 [3] = experiment: ET1 secretion by non-stimulated 1° MK (ELISA of supernatant); type: cell-based, mouse; settings: two doses of GSK205, dose-dependent
ET1 [4] = experiment: ET1 expression by UVB-exposed 1° MK (immunocytochemistry); type: cell-based, mouse; settings: for ET1 immunoreactivity in UVB-exposed 1° MK: immunolabeling 24 hours after UVB-LED; for ET1 expression in UVB-exposed 1° MK, densitometric quantification: vs. control-treated and UVB-exposed cells, n≧25 cells, p<0.05
Description: 1° MK were exposed to UVB using the UV optical system (295 nm LED). 24 hours later the cells were fixed and fluorescently immunolabeled for ET1. Digital images were captured and subjected to morphometry.
Mouse keratinocytes were cultured on collagen coated quartz coverslips and then stimulated from the bottom using the previously mentioned UV optical system using the 295 nm LED. 24 hours later the cells were fixed in 4% formaldehyde in PBS for 20 minutes, permeabilized with 0.1% Triton X-100 in PBS for 10 minutes, washed, then blocked in 10% normal goat serum in PBS for 45 minutes. Coverslips were incubated overnight with primary antibody mouse anti-ET1 (1:200; Abcam), washed three times in PBS and incubated with secondary antibody for 2 hours at 25° C. Coverslips were washed three times in PBS, once with double-distilled H2O. Digital images were captured using a 40× immersion lens on the BX61 Olympus upright microscope. Morphometric analysis was conducted using ImageJ freeware with tailored regions-of-interest.

TRPV4 [5] = target: T1, TRPV4; experiment: GSK101-evoked Ca++ transient in 1° MK (fura-2); type: cell-based
Description: as §1

TRPV3 = target: T2, TRPV3 (Mus musculus, UniProt Q8K424); experiment: TRPV3 activation experiment: camphor-evoked Ca++ transient in keratinocytes; type: cell-based
T2 construct: endogenous in cells; host or cells: primary mouse keratinocytes (1° MK)
T2 sequence (Q8K424 1-791): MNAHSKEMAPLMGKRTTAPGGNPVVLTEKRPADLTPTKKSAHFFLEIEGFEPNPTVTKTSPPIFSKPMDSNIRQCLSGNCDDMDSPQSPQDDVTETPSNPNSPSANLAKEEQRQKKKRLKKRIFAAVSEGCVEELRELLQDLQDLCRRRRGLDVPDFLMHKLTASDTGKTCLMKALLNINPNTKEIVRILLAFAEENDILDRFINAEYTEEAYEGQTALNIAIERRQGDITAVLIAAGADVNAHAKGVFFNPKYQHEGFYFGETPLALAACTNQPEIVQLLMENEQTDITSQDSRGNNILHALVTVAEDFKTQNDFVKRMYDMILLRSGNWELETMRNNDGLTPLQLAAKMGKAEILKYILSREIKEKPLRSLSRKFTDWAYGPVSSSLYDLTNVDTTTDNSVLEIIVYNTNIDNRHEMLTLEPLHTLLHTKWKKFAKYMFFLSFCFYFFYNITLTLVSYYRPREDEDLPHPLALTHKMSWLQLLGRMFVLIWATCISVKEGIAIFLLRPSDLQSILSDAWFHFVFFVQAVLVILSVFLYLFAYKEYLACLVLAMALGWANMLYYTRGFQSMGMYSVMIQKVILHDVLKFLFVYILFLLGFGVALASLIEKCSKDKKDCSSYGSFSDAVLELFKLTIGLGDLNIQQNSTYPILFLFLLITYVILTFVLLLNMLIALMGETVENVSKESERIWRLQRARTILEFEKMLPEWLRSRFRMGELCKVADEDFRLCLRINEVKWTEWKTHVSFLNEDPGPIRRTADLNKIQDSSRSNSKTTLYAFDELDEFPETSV

mice = experiment: Nocifensive behavior in response to ET1 footpad injection (von Frey); type: in vivo, mouse
Description: ET1 injections: After determining base-line withdrawal thresholds, each animal received an intraplantar injection of 10 μL 100 nM ET-1 plus contralateral vehicle. Thresholds were again evaluated 1 hour after injection.
Hindpaw mechanical withdrawal thresholds were determined by the automated von Frey hair method, using a 0.5 mm diameter stainless steel filament, part of an automated plantar touch stimulator (Ugo Basile, Modena, Italy). Relevant detail included pre-test acclimatization in a quiet room for 30 min, conducting the test at the same time of day and blinded observers. The stimulus was delivered to the hindpaw, automatically discontinued upon withdrawal, and its intensity recorded automatically. 6-8 trials per animal were conducted, with equal exposure of both hindpaws, leading to an average withdrawal threshold. Results are reported as Δ-threshold, which was calculated by subtracting post-treatment from pre-treatment measurements, expressed as % or relative to 1.0.

T1 sequence (Q9EPK8 whole entry): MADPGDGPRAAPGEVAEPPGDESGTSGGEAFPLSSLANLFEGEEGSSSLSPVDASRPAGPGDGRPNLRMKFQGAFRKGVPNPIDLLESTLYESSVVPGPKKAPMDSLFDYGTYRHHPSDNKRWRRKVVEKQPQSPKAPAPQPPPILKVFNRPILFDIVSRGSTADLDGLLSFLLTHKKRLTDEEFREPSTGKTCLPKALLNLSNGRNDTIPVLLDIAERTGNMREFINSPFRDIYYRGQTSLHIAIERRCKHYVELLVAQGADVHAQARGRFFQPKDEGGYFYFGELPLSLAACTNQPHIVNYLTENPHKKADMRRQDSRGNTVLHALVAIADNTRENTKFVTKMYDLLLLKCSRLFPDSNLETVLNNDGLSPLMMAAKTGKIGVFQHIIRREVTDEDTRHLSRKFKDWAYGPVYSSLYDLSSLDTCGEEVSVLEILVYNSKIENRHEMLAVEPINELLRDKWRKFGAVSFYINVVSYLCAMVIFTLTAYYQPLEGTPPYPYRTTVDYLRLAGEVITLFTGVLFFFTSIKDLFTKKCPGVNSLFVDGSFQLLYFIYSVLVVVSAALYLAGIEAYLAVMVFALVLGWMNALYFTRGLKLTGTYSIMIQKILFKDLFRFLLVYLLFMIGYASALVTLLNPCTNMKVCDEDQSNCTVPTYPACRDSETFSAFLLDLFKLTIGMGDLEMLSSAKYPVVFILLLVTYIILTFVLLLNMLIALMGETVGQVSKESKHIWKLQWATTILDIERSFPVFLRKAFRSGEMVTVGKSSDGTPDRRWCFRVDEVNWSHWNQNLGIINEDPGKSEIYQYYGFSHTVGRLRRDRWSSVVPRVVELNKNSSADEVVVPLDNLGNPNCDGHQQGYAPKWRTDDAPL

Compound | effect on UVB-evoked Ca++ signal in 1° MK [2] | ET1 secretion by non-stimulated 1° MK (ET1 [3]) | ET1 immunoreactivity in UVB-exposed 1° MK (ET1 [4]) | ET1 expression in UVB-exposed 1° MK, densitometric quantification (ET1 [4]) | further results
CCCCCCCCCC(=O)O[C@@H]1[C@@H](C)[C@@]2(O)[C@@H](C=C(CO)C[C@@]3(O)C(=O)C(C)=C[C@@H]23)[C@@H]2C(C)(C)[C@]12OC(=O)CCCCCCCCC [4α-PDD, 4α-phorbol 12,13 didecanoate] |  |  |  |  | Ca++ transients evoked in 1° MK (TRPV4 [1]; 4α-PDD): Ca++ transients
CC(C)C[C@@H]1NC(=O)[C@@H](C(C)C)NC(=O)[C@@H]2CCCN2C(=O)[C@@H](CC(=O)O)NC(=O)[C@@H](Cc2c[nH]c3ccccc23)NC1=O [BQ123] (cyclo(L[dW][dD]P[dV])) |  |  |  |  | effect on ET1-augmented, UVB-induced Ca++ transients in 1° MK [2]: attenuated
CCCC[C@@H](NC(=O)[C@@H](Cc1cn(C(=O)OC)c2ccccc12)NC(=O)[C@H](CC(C)(C)C)NC(=O)N1[C@H](C)CCC[C@@H]1C)C(=O)O [BQ788] |  |  |  |  | effect on ET1-augmented, UVB-induced Ca++ transients in 1° MK [2]: attenuated
O=C(O)C(Cc1ccc2c(c1)oc1ccccc12)NCP(=O)(O)O (stereo not shown) [CGS35066] | significantly diminished; also recorded: significant attenuation | down-regulation | significant down-regulation | significant down-regulation | 
CC(C)C[C@H](NC(=O)c1cc2ccccc2s1)C(=O)N1CCN(C(=O)[C@H](CO)NS(=O)(=O)c2ccc(Cl)cc2Cl)CC1 [GSK101] |  |  |  |  | Ca++ transient evoked in 1° MK (TRPV4 [5]; 5 nM GSK101, WT 1° MK): directly stimulate TRPV4; also recorded: Ca++ transient
C=C(C)CCO[P@@](=O)(O)OP(=O)(O)O [IPP, isopentenyl pyrophosphate] | no effect; also recorded: not inhibited |  |  |  | 
CC(C)NCCN(C(C)C)S(=O)(=O)c1ccc(Cl)cc1Cl [RN1734] |  | significant down-regulation | diminished; also recorded: significant down-regulation | significant down-regulation | 
COc1ccc2c(c1)CC[C@@H]1[C@@H]2CC[C@]2(C)[C@@H](NCCCCCCN3C(=O)C=CC3=O)CC[C@@H]12 [U73122] | virtually eliminated; also recorded: strongly reduced | down-regulation | dampened; also recorded: significant down-regulation | significant down-regulation | 
CC12CCC(CC1=O)C2(C)C (stereo not shown) [camphor, Camphor] |  |  |  |  | induction of a Ca++ transient (TRPV3): Induction of a Ca++ transient
endothelin-1 [ET1] |  |  |  |  | effect of ET1 co-exposure on UVB-evoked Ca++ transients in 1° MK ([2]; co-exposure UVB + ET1 peptide): significant increase; also recorded: augmentation; effect of ET1 on GSK101-evoked Ca++ signaling (TRPV4 [5]; 5 nM GSK101, co-exposure to ET1): augmented; also recorded: increase in signal; effect of ET1 co-application on 4α-PDD-evoked Ca++ response (TRPV4 [1]; co-application with 4α-PDD): significant increase; mechanical allodynia after ET1 footpad injection, TRPV4-deficient mice (mice; Trpv4−/− and tam-treated iKO mice): fail to respond; mechanical withdrawal thresholds after ET1 footpad injection, control mice (mice; WT and oil-treated iKO mice, 10 μL 100 nM ET-1 intraplantar): significantly lowered; also recorded: significant levels of mechanical allodynia
